# No end group written: not given here. *: point of attachment. Palmitoyl = CCCCCCCCCCCCCCCC(=O)*
# Key:
# [1] = tested on: HPV16-specific CD8+ T-cells; test: HPV16-specific CD8+ T-cell induction after vaccination, ELISPOT of splenocytes; format: in vivo, C57 black mice; conditions: given with KF18 HPV peptide, vaccinated Day 0 and Day 7, splenocytes Day 14, stimulated with RAHYNIVTF
# Source text: Effect of HPV16-E7, R-DOTAP/HPV16-E7, S-DOTAP/HPV16-E7 and Alum/MPL/HPV16-E7 vaccination on HPV16-specific CD8+ T-cell induction by ELISpot. The HPV16 E7 peptide used in the vaccine (SEQ ID NO: 2) is labelled KF18.
# C57 black mice were vaccinated with various formulations: • Group 1: KF18 HPV peptide • Group 2: KF18 HPV peptide+R-DOTAP liposomes • Group 3: KF18 HPV peptide+S-DOTAP liposomes • Group 4: KF18 peptide+MPL/Alum adjuvant • *For each of the groups above, the KF18 HPV peptide corresponds to Palmitoyl-KSS-[…] (SEQ ID NO: 2)
# 5 mice per group were injected with the various formulations. The mice were vaccinated on Day 0 and Day 7 and sacrificed on Day 14. The splenocytes were removed and ELISPOT studies performed. The splenocytes were stimulated with the peptide […] (SEQ ID NO: 3), the HPV16 CD8+ T-cell epitope peptide recognized by the C57 mice.
# [2] = tested on: Bone marrow derived dendritic cells (BMDC); test: DQ-OVA uptake and processing by bone marrow derived dendritic cells (flow cytometry); format: cell-based, mouse; conditions: for uptake and processing of DQ-OVA by DC (fluorescence): 37° C., versus DQ-OVA in media alone
# Description: FIG. 1 provides a graph showing that DOTAP enhancement of antigen processing is specific for dendritic cells. Bone marrow derived dendritic cells were incubated with DQ-OVA in the presence of various concentrations of DOTAP as shown. In addition, a mouse epithelial cell line, TC1, was treated in an identical fashion.
# FIG. 2 provides fluorescence readings for receptor mediated uptake. R-DOTAP nanoparticles, but not MPL stimulate uptake and processing by DC within 10 minutes. Mouse bone marrow DC were incubated in the presence of fluorescent DQ-OVA for one hour at either 37° C. or 4° C./azide in the presence of 25 uM DOTAP nanoparticles, 10 ug/ml MPL or media alone, and analyzed by flow cytometry. On the presented density plot, the y-axis represents the amount of green fluorescence which results from uptake and processing of the protein, while the x-axis represents the amount of red fluorescence resulting from concentration in endosomal vesicles.
# To determine the effects of cationic lipids on antigen uptake and processing by dendritic cells, a fluorescent ovalbumin protein called DQ-OVA was used. DQ-OVA is non-fluorescent when intact, but emits both red and green fluorescence when the protein is degraded. Dendritic cells were grown from mouse bone marrow by culturing for 8 days in GMCSF+IL-4 (hereafter referred to as BMDC). BMDC were incubated at 37° C. or 4° C. for 1 hour with DQ-OVA alone, or DQ-OVA mixed with different concentrations of the cationic lipid R-DOTAP. The cells were then washed, fixed, and stained with fluorescent antibodies to CD11c, a marker for dendritic cells. Cells were then analyzed on an LSRII flow cytometer in both red and green fluorescent channels.
# To determine whether non-cationic lipid adjuvants could mediate the same effect as DOTAP, BMDC were incubated with DQ-OVA in media alone or with DOTAP as described for FIG. 1. In addition, BMDC were incubated under identical conditions with the potent lipid adjuvant […] (MPL).
# [3] = tested on: T-cells and total lymphocytes in popliteal lymph nodes; test: T-cell and lymphocyte infiltration into draining lymph nodes after foot pad injection; format: in vivo, mice
# Source text: FIG. 10 provides a graph showing that R-DOTAP injection induces the migration of lymphocytes including T-lymphocytes into the draining lymph nodes. […] R-DOTAP injection is represented by striped bars, and the control is represented by shaded bars.
# To better understand the ability of T-cell activating cationic lipids such as R-DOTAP to promote the induction of the effector CD8+ T-cells, which are also critical in altering the tumor's microenvironment, the impact of R-DOTAP vaccination on B and T-cells was studied. 12 mM R-DOTAP or sucrose as control were injected into the right and left foot pad respectively of mice and the influx of T-cells and total lymphocytes into the draining lymph nodes were quantified by flow cytometry. In this experiment, 15 hours after vaccination the popliteal lymph nodes were removed and analysis performed. […] Five mice were used per study.
# [4] = tested on: T regulatory cells (CD45+CD3+CD4+CD25+Foxp3+) in tumor; test: Regulatory T cell population within TC-1 tumors (flow cytometry); format: in vivo, C57 mice; conditions: Day 19, within 1 week of vaccination (Day 12)
# Description: FIG. 6: provides a graph showing that R-DOTAP and R-DOTAP+antigen uniquely reduce the population of regulatory T cells within the tumors after vaccination. 1×10^5 cells implanted subcutaneously on the right side of the abdomen of female B6 mice on day 0 and were vaccinated on day 12 and on day 19 post Tumor implant. T regulatory cells (CD45+CD3+CD4+CD25+Foxp3+) cells infiltrated into tumors on day 19. The reduction is calculated as the ratio of total T reg cells in tumor/average T reg cell in tumor and normalized to T reg cells in naïve mouse. Data represents mean±SEM of 4-5 mice in each group. * Statistically significant R-DOTAP+antigen compared to all other groups (other than R-DOTAP only). P<0.01.
# C57 mice were divided into the following groups of 8 mice per group: • Group 1: R-DOTAP+KF18 (SEQ ID NO: 2) • Group 2: GM-CSF+KF18 (SEQ ID NO: 2) • Group 3: R-DOTAP • Group 4: GM-CSF • Group 5: KF18 (SEQ ID NO: 2) • Group 6: Naïve mice (tumor bearing and untreated). • 1×10E^5 TC-1 tumor cells were injected into the flank of the mice on day 0. The various formulations were administered on Days 12 and 19 after tumor implantation. […]
# [5] = tested on: CFSE labeled lymphocytes in popliteal LN; test: Lymph node homing of CFSE labeled adoptively transferred spleen cells, with or without pertussis toxin; format: in vivo, B6 mice; conditions: after 16 h
# Source text: The primary objective of the current experiment was to understand if T-cell infiltration induced by R-DOTAP is chemokine dependent. We utilized 5 mice to perform the study, and visualized the homing of CFSE labeled adoptively transferred cells. The study included a population of cells that had been treated in vitro with pertussis toxin to inactivate chemokine receptors. Pertussis toxin-treated and untreated cells were labeled with two different concentrations of CFSE so that they could be distinguished by flow cytometry.
# Spleen cells were prepared from a single B6 mouse and divided in half. Half of the cells were treated with Pertussis toxin 100 ng/ml for 1 hour at 37° C. and washed. The two cell populations were then labeled with CFSE at two different concentrations so they could be distinguished by flow cytometry, and mixed together. The mix (10e7 cells) was injected i.v. into the tail vein of 5 B6 mice. The mice were then anesthetized and injected in the footpad with either sucrose (right footpad) or R-DOTAP (left footpad, 50 ul, 600 nmoles).
# After 16 h, the mice were sacrificed and the popliteal LN and spleens harvested. The total cells recovered from left and right nodes from each mouse were counted.
# [6] = tested on: HPV16-positive TC-1 tumors; test: Regression of established TC-1 tumors, R- versus S-DOTAP, administered Day 6; format: in vivo, mice; conditions: 1×10E^5 TC-1 cells day 0, administered on Day 6
# Description: Effect of R-DOTAP (solid squares), R-DOTAP/HPV16-E7 (clear squares) and S-DOTAP/HPV16-E7 (solid circles) vaccination on regression of established HPV16-positive TC-1 tumors. The HPV16 E7 peptide used in the vaccine (SEQ ID NO: 2) is labelled KF18. Tumor volumes were measured using calipers.
# R-DOTAP only, R-DOTAP/HPV16 E7 (SEQ ID NO: 2) and S-DOTAP/HPV16 E7 (SEQ ID NO: 2) were administered on Day 6 after tumor implantation.
# [7] = tested on: OT1 splenocytes (TCR transgenic T cells specific for SIINFEKL); test: Cross-presentation of OVA by DC to MHC class I restricted OT-1 T cells (3H-thymidine uptake); format: cell-based, mouse; conditions: whole OVA protein, 25 uM lipid, 37° C., versus OVA without cationic lipid
# Description: FIG. 3: R-DOTAP enhancement of antigen processing results in enhancement of cross-presentation to MHC class I restricted T cells. Bone marrow derived DC were incubated in the presence of various concentrations of whole OVA protein and 25 uM DOTAP or DOTMA for 30 min at 37° C. or 4° C.
# In order to verify that the cationic lipid facilitated uptake of antigen translates into enhanced antigen presentation on MHC class I (cross presentation), T cells from a TCR transgenic mouse (OT-1) were utilized in which all T cells are specific for an internal peptide of OVA. These T-cells will only proliferate if presented with DCs which have processed OVA and presented an OVA peptide on MHC class I molecules. Thus, this represents a stringent assay for cross-presentation. BMDC were incubated with different concentrations of the whole OVA protein in the presence or absence of two cationic lipids, either DOTAP or DOTMA for 1 hour at 37° C. The DCs were then washed, fixed and added to the OVA peptide specific T-cells. […] This response was dose dependent with respect to the OVA concentration, and was even apparent when DC were incubated with OVA at 4° C.
# HPV-positive TC-1 tumors = test: Regression of established TC-1 tumors, vaccination Days 12 and 19; format: in vivo, C57 mice
# Description: Tumors were implanted on Day 0 and the mice vaccinated on Days 12 and 19. Tumor volumes were measured using calipers. The naïve mice group are tumor bearing mice that remained untreated. […] P<0.01.
# C57 mice were divided into the following groups of 8 mice per group: • Group 1: R-DOTAP+KF18 (SEQ ID NO: 2) • Group 2: GM-CSF+KF18 (SEQ ID NO: 2) • Group 3: R-DOTAP • Group 4: GM-CSF • Group 5: KF18 (SEQ ID NO: 2) • Group 6: Naïve mice (tumor bearing and untreated). • 1×10E^5 TC-1 tumor cells were injected into the flank of the mice on day 0. The various formulations were administered on Days 12 and 19 after tumor implantation.
# The third group of animals who were treated with either R-DOTAP alone or GM-CSF alone without antigen, or left untreated (Treg/CD8+ ratio >30) had tumor volumes of 300-700 mm^3.
compound,measurement,setting,value
"CCCCCCCC/C=C\CCCCCCCC(=O)OCC(C[N+](C)(C)C)OC(=O)CCCCCCC/C=C\CCCCCCCC (stereo not shown) [S-DOTAP, 1,2-dioleoyl-3-trimethylammonium propane]",HPV-specific CD8+ T-cell response (ELISPOT),[1],did not result in an enhanced CD8+ T-cell response beyond what was seen with the peptide alone
same,uptake and processing of DQ-OVA by DC (fluorescence),"[2]; BMDC with DQ-OVA, 1 hour",no difference
"CCCCCCCC/C=C\CCCCCCCC(=O)OCC(C[N+](C)(C)C)OC(=O)CCCCCCC/C=C\CCCCCCCC (stereo not shown) [R-DOTAP, 1,2-dioleoyl-3-trimethylammonium propane]",infiltration of T-cells into the draining lymph node,"[3]; 12 mM, foot pad, 15 hours after vaccination, sucrose as control",significant infiltration of T-cells into the lymph node
same,lymphocyte infiltration into the lymph nodes over time,"[3]; 5 hours, 16 hours, 3 days and 4 days",increase over the 4-day period
same,reduction in the Treg population within the tumors,[4],about 20%
same,infiltration of pertussis toxin treated CFSE labeled cells into the lymph node,[5]; cells treated with Pertussis toxin 100 ng/ml,did not occur
same,infiltration of transferred CFSE labeled lymphocytes into the lymph node,"[5]; untreated cells, footpad 50 ul, 600 nmoles",infiltrated the lymph node
same,HPV-specific CD8+ T-cell response (ELISPOT),[1],effective in inducing strong HPV-specific CD8+ T-cell responses
same,time within which uptake and processing by DC is stimulated,"[2]; 25 uM DOTAP nanoparticles, FIG. 2 legend",≤ 10 min
same,uptake and processing of DQ-OVA by DC (fluorescence),"[2]; BMDC with DQ-OVA, 1 hour",greatly enhanced
same,anti-tumor effect on established TC-1 tumors,[6],lack of regression or inhibition of growth
"CCCCCCCC/C=C\CCCCCCCC(=O)OCC(C[N+](C)(C)C)OC(=O)CCCCCCC/C=C\CCCCCCCC (stereo not shown) [DOTAP, 1,2-dioleoyl-3-trimethylammonium propane]",cross-presentation of OVA antigen by DC to CD8+ T cells,[7],much more efficiently
same,uptake of DQ-OVA by DC at 4° C.,"[2]; BMDC with DQ-OVA, 1 hour, 4° C.",Significant uptake
same,uptake and processing of DQ-OVA by DC (fluorescence),"[2]; BMDC with DQ-OVA, 1 hour",significant increase of fluorescence
same,concentration showing the greatest effect on DQ-OVA uptake,[2]; concentration dependent effect in BMDC,50 µM
Palmitoyl-KSS-GQAEPDRAHYNIVTF (Palmitoyl-KSSGQAEPDRAHYNIVTF) [KF18],tumor volume,"HPV-positive TC-1 tumors; vaccinated Days 12 and 19, Day 26",about 200 mm^3
same,tumor regression / elimination,"HPV-positive TC-1 tumors; vaccinated Days 12 and 19, by Day 26",did not induce any tumor regression but rather inhibited tumor growth
"Monophorphoryl lipid-A [MPL, reference compound]",HPV-specific CD8+ T-cell response (ELISPOT),[1],significantly lower CD8+ T-cell response compared to R-DOTAP
same,uptake and processing of DQ-OVA by DC (fluorescence),"[2]; BMDC with DQ-OVA, 1 hour",no such enhancement

# From patent publication US20250018029A1, “METHODS TO ALTER THE TUMOR MICROENVIRONMENT FOR EFFECTIVE CANCER IMMUNOTHERAPY” (PDS BIOTECHNOLOGY CORPORATION, priority 2016, published 2025)
